Read-outs that look alike come from different tables or passages of the source.
Tests used:
[1] = system: Meloidogyne incognita; assay: Meloidogyne incognita test (sand, lettuce, gall formation); format: in vivo; settings: Meloidogyne incognita, 336 h, 20 ppm, after 14 days; read-out: nematicidal efficacy (formation of galls)
Procedure, shortened: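 Gall counts on lettuce roots were scored after 14 days in sand inoculated with root-knot nematode eggs/larvae plus compound diluted in water. Values run from 0% (galls as in untreated plants) to 100% (gall-free).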

[2] = system: Myzus persicae; assay: Myzus persicae oral test; format: in vivo; settings: 120 h, 20 ppm, after 5 days, read-out: efficacy
Description: Myzus persicae—Oral Test [table] To produce a suitable active compound preparation, 1 part by weight of active compound is dissolved with the stated parts by weight of solvent and made up to the desired concentration with water. 50 μl of the active compound preparation are transferred into microtitre plates and made up to a final volume of 200 μl with 150 μl of IPL41 insect medium (33%+15% sugar). Subsequently, the plates are sealed with parafilm, which a mixed population of green peach aphids (Myzus persicae) within a second microtitre plate is able to puncture and imbibe the solution through it. After 5 days, the efficacy in % is determined. 100% means that all the aphids have been killed; 0% means that no aphids have been killed.

[3] = system: Myzus persicae; assay: Myzus persicae spray test (Chinese cabbage leaf discs); format: in vivo; settings: foliar, 144 h, 500 g/ha, after 6 days, read-out: efficacy
Description: Myzus persicae—Spray Test [table] To produce a suitable active compound preparation, 1 part by weight of active compound is dissolved with the specified parts by weight of solvent and made up to the desired concentration with water containing an emulsifier concentration of 1000 ppm. To produce further test concentrations, the formulation is diluted with emulsifier-containing water. Discs of Chinese cabbage leaves (Brassica pekinensis) infested by all stages of the green peach aphid (Myzus persicae) are sprayed with an active compound preparation of the desired concentration. After 6 days, the efficacy in % is determined. 100% means that all the aphids have been killed; 0% means that no aphids have been killed.

[4] = system: Myzus persicae; assay: Myzus persicae spray test (bell pepper plants); format: in vivo; settings: 100 ppm, after 6 days
Description: Myzus persicae—Spray Test [table] To produce a suitable active compound preparation, 1 part by weight of active compound is dissolved with the specified parts by weight of solvent and made up to the desired concentration with water containing an emulsifier concentration of 1000 ppm. To produce further test concentrations, the formulation is diluted with emulsifier-containing water. If the addition of ammonium salts or/and penetrants is required, these are each added in a concentration of 1000 ppm to the formulation solution. Bell pepper plants (Capsicum annuum) severely infested with the green peach aphid (Myzus persicae) are treated by spraying with the active compound preparation in the desired concentration. After 6 days, the kill in % is determined. 100% means that all of the aphids have been killed; 0% means that none of the aphids have been killed.

[5] = system: Spodoptera frugiperda; assay: Spodoptera frugiperda spray test; format: in vivo; settings: 500 g/ha, maize leaf discs, after 7 days
Description: Spodoptera frugiperda—Spray Test [table] To produce a suitable active compound preparation, 1 part by weight of active compound is dissolved with the specified parts by weight of solvent and made up to the desired concentration with water containing an emulsifier concentration of 1000 ppm. To produce further test concentrations, the formulation is diluted with emulsifier-containing water. Leaf discs of maize (Zea mays) are sprayed with an active compound preparation of the desired concentration and, after drying, populated with caterpillars of the armyworm (Spodoptera frugiperda). After 7 days, the efficacy in % is determined. 100% means that all the caterpillars have been killed; 0% means that no caterpillar has been killed.

[6] = system: Boophilus microplus; assay: Boophilus microplus injection test; format: in vivo; settings: 20 μg/animal, after 7 days
Description: Boophilus microplus—Injection Test Solvent: dimethyl sulfoxide To produce a suitable active compound preparation, 10 mg of active compound are mixed with 0.5 ml of solvent and the concentrate is diluted to the desired concentration with solvent. 1 μl of the active compound solution is injected into the abdomen of 5 engorged adult female cattle ticks (Boophilus microplus). The animals are transferred into dishes and kept in a climate-controlled room. Efficacy is assessed after 7 days by laying of fertile eggs. Eggs which are not visibly fertile are stored in a climate-controlled cabinet until the larvae hatch after about 42 days. An efficacy of 100% means that none of the ticks has laid any fertile eggs; 0% means that all the eggs are fertile.

[7] = system: Phaedon cochleariae; assay: Phaedon cochleariae spray test; format: in vivo; settings: 500 g/ha, Chinese cabbage leaf discs, after 7 days
Description: Phaedon cochleariae—Spray Test
(§1) To produce a suitable active compound preparation, 1 part by weight of active compound is dissolved with the specified parts by weight of solvent and made up to the desired concentration with water containing an emulsifier concentration of 1000 ppm. To produce further test concentrations, the formulation is diluted with emulsifier-containing water.
After 7 days, the efficacy in % is determined. 100% means that all the beetle larvae have been killed; 0% means that no beetle larvae have been killed.

[8] = system: Tetranychus urticae; assay: Tetranychus urticae spray test, OP-resistant; format: in vivo; settings: foliar, 144 h, bean leaf discs, after 6 days, read-out: efficacy
Description: Tetranychus urticae—Spray Test, OP-Resistant
as §1
Discs of bean leaves (Phaseolus vulgaris) infested with all stages of the greenhouse red spider mite (Tetranychus urticae) are sprayed with an active compound preparation of the desired concentration.
After 6 days, the efficacy in % is determined. 100% means that all the spider mites have been killed; 0% means that no spider mites have been killed.

[9] = system: Meloidogyne incognita; assay: Meloidogyne incognita test, comparative examples (soil drench, lettuce); format: in vivo; settings: 504 h, MELGIN, 21dat
Description: Meloidogyne incognita Test [table] To produce a suitable active compound preparation, 1 part by weight of active compound is mixed with the specified amounts of solvent and emulsifier, and the concentrate is diluted with water to the desired concentration, it being necessary to include the volume of soil which is drenched in the calculation. It should be ensured that a concentration of 20 ppm of emulsifier in the soil is not exceeded. To produce further test concentrations, water is used for dilution. Pots filled with soil (loamy sand) are watered with the active compound solution. An egg/larvae suspension of the southern root-knot nematode (Meloidogyne incognita) is added, lettuce seeds are scattered over the surface of the soil, and they are covered over with quartz sand. The lettuce seeds germinate and the plants develop. The galls develop on the roots. After 21 days, the nematicidal efficacy in % is determined by the formation of galls. 100% means that no galls have been found; 0% means that the number of galls on the treated plants corresponds to the untreated control.

[10] = system: Nilaparvata lugens; assay: Nilaparvata lugens test; format: in vivo; settings: 500 g/ha, spray, rice plants, after 4 days
Description: Nilaparvata lugens Test [table] To produce a suitable active compound preparation, 1 part by weight of active compound is dissolved with the specified parts by weight of solvent and made up to the desired concentration with water containing an emulsifier concentration of 1000 ppm. To produce further test concentrations, the formulation is diluted with emulsifier-containing water. Rice plants (Oryza sativa) are sprayed with the active compound preparation of the desired concentration and then infected with larvae of the brown planthopper (Nilaparvata lugens). After 4 days, the efficacy in % is determined. 100% means that all of the planthoppers have been killed; 0% means that none of the planthoppers have been killed.

[11] = log P by HPLC on reversed-phase column (C18), EEC Directive 79/831 Annex V.A8; format: physicochemical; settings: reversed-phase C18 HPLC column, 43° C.
Description: The log P values were determined according to EEC Directive 79/831 Annex V.A8 by HPLC (high-performance liquid chromatography) on a reversed-phase column (C18). Temperature 43° C. The calibration is effected with unbranched alkan-2-ones (having 3 to 16 carbon atoms), for which the log P values are known. Here, the terms acidic and neutral are defined analogously to the definitions below for the determination of M^+. The determination of the M^+ by LC-MS in the acidic range was carried out at pH 2.7 using the mobile phases 0.1% aqueous formic acid and acetonitrile (contains 0.1% formic acid); linear gradient from 10% acetonitrile to 95% acetonitrile, instrument: Agilent 1100 LC system, Agilent MSD system, HTS PAL. The determination of the M^+ by LC-MS in the neutral range was carried out at pH 7.8 using the mobile phases 0.001 molar aqueous ammonium bicarbonate solution and acetonitrile; linear gradient from 10% acetonitrile to 95% acetonitrile.

[12] = neutral range, pH 7.8, aqueous ammonium bicarbonate/acetonitrile, read-out: log P (neutral)

SMILES: CCSc1cccc(Cl)c1S(=O)(=O)NC(=O)c1cn(-c2cc(F)cc(F)c2)c(C)n1 [I-387]
- pest or weed control at 20 ppm [1]: 100%
- pest or weed control at 20 ppm [2]: 100%
- pest or weed control at 500 g/ha [3]: 70%
- efficacy (kill in %) [4]: 99%

SMILES: O=C(NS(=O)(=O)c1ccccc1Cl)c1cn(Cc2ccccc2Cl)cn1 [I-156]
- pest or weed control at 20 ppm [1]: 100%
- efficacy [5]: 100%

SMILES: Cc1nc(C(=O)NS(=O)(=O)c2ccccc2Cl)cn1-c1cc(Cl)cc(Cl)c1 [I-316]
- pest or weed control at 20 ppm [1]: 100%
- pest or weed control at 20 ppm [2]: 100%
- efficacy (kill in %) [4]: 95%

SMILES: O=C(NS(=O)(=O)c1ccccc1)c1ncn(C2CC2C(F)(F)F)c1Cl (stereo not drawn) [I-059]
- efficacy (laying of fertile eggs) [6]: 100%
- pest or weed control at 20 ppm [1]: 100%
- pest or weed control at 500 g/ha [3]: 70%
- efficacy [7]: 83%
- efficacy [5]: 100%
- pest or weed control at 500 g/ha [8]: 90%

SMILES: COc1ccc(Cl)c(S(=O)(=O)NC(=O)c2cn3cc(C(F)(F)F)cc(Cl)c3n2)c1
- nematode control efficacy (%) at 0.5 ppm [9]: 55%

SMILES: Cc1nc(C(=O)NS(=O)(=O)c2ccccc2)cn1-c1cccc(Cl)c1Cl [I-268]
- efficacy (laying of fertile eggs) [6]: 80%
- pest or weed control at 20 ppm [1]: 100%
- pest or weed control at 20 ppm [2]: 90%
- pest or weed control at 500 g/ha [3]: 90%

SMILES: O=C(NS(=O)(=O)c1cccc(Cl)c1)c1cn(-c2cc(Cl)cc(C(F)(F)F)c2)cn1 [I-300]
- pest or weed control at 20 ppm [1]: 70%
- efficacy [7]: 100%

SMILES: Cc1cc(C)cc(-n2cnc(C(=O)NS(=O)(=O)c3ccccc3)c2)c1 [I-284]
- efficacy (laying of fertile eggs) [6]: 100%
- pest or weed control at 20 ppm [1]: 70%
- pest or weed control at 20 ppm [2]: 100%

SMILES: COc1ccc(Cl)c(S(=O)(=O)NC(=O)c2cc3cc(Cl)cc(Cl)n3n2)c1
- nematode control efficacy (%) at 1 ppm [9]: 0%

SMILES: COc1ccc(Cl)c(S(=O)(=O)NC(=O)c2cc(-c3cc(Cl)cc(C(F)(F)F)c3)n(C)n2)c1 [I-141]
- pest or weed control at 20 ppm [1]: 90%
- nematode control efficacy (%) at 8 ppm [9]: 99%

SMILES: CCc1ccc(C)c(S(=O)(=O)NC(=O)c2nc(Cl)n(CCC(F)(F)F)c2Cl)c1 [I-456]
- pest or weed control at 20 ppm [1]: 100%
- efficacy [10]: 100%

SMILES: COc1ccc(Cl)c(S(=O)(=O)NC(=O)c2nc(Cl)n(-c3cc(Cl)cc(Cl)c3)c2Cl)c1 [I-113]
- pest or weed control at 20 ppm [1]: 100%
- nematode control efficacy (%) at 0.5 ppm [9]: 100%

SMILES: COc1ccc(S(=O)(=O)NC(=O)c2ncn(C(C)CC(F)(F)F)c2Cl)cc1 (stereo not drawn) [I-070]
- pest or weed control at 20 ppm [1]: 100%
- efficacy [10]: 100%

SMILES: COc1ccc(Cl)c(S(=O)(=O)NC(=O)c2cc(-c3cc(Cl)cc(Cl)c3)n(C)n2)c1 [I-137]
- pest or weed control at 20 ppm [1]: 100%
- nematode control efficacy (%) at 1 ppm [9]: 85%

SMILES: O=C(NS(=O)(=O)c1ccccc1Cl)c1ncn(C2CC2C(F)(F)F)c1Cl (stereo not drawn) [I-060]
- efficacy (laying of fertile eggs) [6]: 70%
- pest or weed control at 20 ppm [1]: 90%
- pest or weed control at 500 g/ha [3]: 70%
- efficacy [5]: 100%
- pest or weed control at 500 g/ha [8]: 90%

SMILES: O=C(NS(=O)(=O)c1ccccc1Cl)c1nc(Br)n(CCC(F)(F)F)c1Br [I-107]
- pest or weed control at 20 ppm [1]: 100%
- efficacy [10]: 100%

SMILES: COc1ccc(S(=O)(=O)NC(=O)c2ncn(CCC(F)(F)F)c2Cl)cc1C [I-037]
- pest or weed control at 20 ppm [1]: 100%
- efficacy [7]: 83%

SMILES: COc1ccc(Cl)c(S(=O)(=O)NC(=O)c2cc3c(Cl)cc(C(F)(F)F)cn3n2)c1
- nematode control efficacy (%) at 8 ppm [9]: 30%

SMILES: COc1ccc(Cl)c(S(=O)(=O)NC(=O)c2nc(Cl)n(C3CC3C(F)(F)F)c2Cl)c1 (stereo not drawn) [I-470]
- pest or weed control at 20 ppm [1]: 100%
- nematode control efficacy (%) at 0.5 ppm [9]: 100%

SMILES: Cc1nc(C(=O)O)cn1-c1ccccc1Cl [1-(2-chlorophenyl)-2-methyl-1H-imidazole-4-carboxylic acid]
- chromatographic logP ([11]; pH 2.7, HCOOH (formic acid mobile phase), read-out: log P (HCOOH)): 0.67
- chromatographic logP [11, 12]: -0.01

SMILES: CCCn1cnc(C(=O)OCC)c1Cl [ethyl 5-chloro-1-propyl-1H-imidazole-4-carboxylate]
- chromatographic logP [11, 12]: 1.7

From patent publication US10820591B2, “Substituted sulfonyl amides for controlling animal pests” (Bayer Aktiengesellschaft, priority 2016, dated 2020)
